Measurements as given in patent publication US20230142274A1 (SIMCERE PHARMACEUTICAL CO., LTD., priority 2020, published 2023).
Where two headings read alike, the source gives them in different places.

What was measured:
[1] = tested on: WI-38 cells; assay: Inhibition of human WI-38 embryonic lung cell proliferation (Cell-Titer Glo); format: cell-based; details: 3 days incubation, read-out: Anti-Proliferative Activity Against WI-38 cells IC50
Procedure: (§1) Introduction of the experimental principle: After the RAD51 inhibitor to be tested was co-incubated with human embryonic lung cells for a period of time, the influence of the test compound on cell proliferation was measured by a method for counting cell proliferation based on the quantitative measurement of intracellular ATP content.
Materials and Cells: WI-38 cells were purchased from ATCC; fetal bovine serum, 1640 medium and penicillin-streptomycin were purchased from Gibco Inc. (U.S.), 96-well plates were purchased from Corning Inc. (U.S.), and Cell-Titer Glo reagent was purchased from Promega Corporation (U.S.).
Cell culture: WI-38 cells were cultured in an EMEM culture medium containing 10% fetal bovine serum and 1% penicillin-streptomycin at 37° C. in an atmosphere containing 5% CO2. Cells in logarithmic growth phase could be used for experiments.
(§2) Assay of cell proliferation and viability: Cell-Titer Glo reagent was used to measure the inhibitory activities of the compounds on the proliferation of WI-38 cell strain. The concentration of cells was adjusted, and the cells were seeded in a 96-well plate and cultured at 37° C. in an atmosphere containing 5% CO2 for 24 hours. The powder of the compound was dissolved in 100% DMSO to form a 10 mM solution. 10 μl of the solution of the compound was aspirated and transferred into a 96-well compound plate containing 20 μl of DMSO solution in each well for 3-fold dilution and was then formulated to 10 serial dilutions. Thereafter, 2 μl of the solution of the compound was aspirated from the corresponding well and added correspondingly into a 96-well intermediate compound dilution plate containing 78 μl of complete culture medium in each well. The resultant was mixed well, and the plate was centrifuged at 1000 rpm for 1 minute. Finally, 10 μl of the solution of the compound was aspirated from the corresponding well of the 96-well intermediate compound dilution plate, and transferred into the corresponding well of the cell culture plate containing 90 μl of complete culture medium. The final concentration of DMSO was 0.25%. After the addition of the compound, the cells were continued to be incubated for 3 days at 37° C. in an atmosphere containing 5% CO2. Cell-Titer Glo reagent was added to measure cell viability.
% Compound inhibition was calculated and IC50 of the compound was fitted;
(§3) % Compound inhibition=1−100%×(Signal−Bottom)/(Top−Bottom)

[2] = tested on: Daudi cells; assay: Inhibition of human Daudi lymphoma cell proliferation (Cell-Titer Glo); format: cell-based; details: 3 days incubation, read-out: Anti-Proliferative Activity Against Daudi cells IC50
Procedure: as §1, with “cancer” for “human embryonic lung”
Materials and Cells: Daudi cells were purchased from ATCC; fetal bovine serum, 1640 medium and penicillin-streptomycin were purchased from Gibco Inc. (U.S.), 96-well plates were purchased from Corning Inc. (U.S.), and Cell-Titer Glo reagent was purchased from Promega Corporation (U.S.).
Cell culture: Daudi cells were cultured in 1640 culture medium containing 10% fetal bovine serum and 1% penicillin-streptomycin at 37° C. in an atmosphere containing 5% CO2. Cells in logarithmic growth phase could be used for experiments.
as §2, with “of Daudi” for “of WI-38”, “solution” for “solution in each well”, “formulated into” for “formulated to”
% Compound inhibition was calculated and IC50 of the compound was filled;
as §3

Structure (SMILES) | IC50 ([1]; Homo sapiens, 72 h) | IC50 ([2]; Homo sapiens, 72 h) | IC50 [1] | IC50 [2]
C=CC(=O)N=S(=O)(c1cc(NC(=O)OC(C)C)ccc1-c1cnc([C@H]2CC[C@H](NC(=O)OC(C)C)CC2)s1)C(C)C (relative stereo) [Example 4, isopropyl trans-N-[4-[2-[4-(isopropoxycarbonylamino)cyclohexyl]thiazol-5-yl]-3-(isopropyl-N-prop-2-enoyl-sulfonimidoyl)phenyl]carbamate] | 7220 nM | 1010 nM |  | 
CC(C)OC(=O)Nc1ccc(-c2nnc([C@H]3CC[C@H](NC(=O)OC(C)C)CC3)s2)c(S(=O)(=O)NC(C)(C)C)c1 [Example 5, isopropyl trans-N-[3-(tert-butylsulfamoyl)-4-[5-[4-(isopropoxycarbonylamino)cyclohexyl]-1,3,4-thiadiazol-2-yl]phenyl]carbamate] | > 25000 nM | 1160 nM |  | 
CC(C)OC(=O)Nc1ccc(-c2cnc(C34CC(NC(=O)OC(C)C)(C3)C4)s2)c(S(=O)(=O)NC(C)(C)C)c1 [Example 7, isopropyl (3-(5-(4-(isopropoxycarbonyl)amino-2-(N-(tert-butyl)sulfamoyl)phenyl)thiazol-2-yl)bicyclo[1.1.1]pent-1-yl)carbamate] | > 25000 nM | 2590 nM |  | 
CC(C)OC(=O)Nc1ccc(-c2cnc(N3CC4C(C3)C4NC(=O)OC(C)C)s2)c(S(=O)(=O)NC(C)(C)C)c1 (stereo not drawn) [Example 9, isopropyl endo-N-[3-(tert-butylsulfamoyl)-4-[2-[6-(isopropoxycarbonylamino)-3-azabicyclo[3.1.0]hex-3-yl]thiazol-5-yl]phenyl]carbamate] |  |  | > 25000 nM | 2060 nM
CC(C)OC(=O)N[C@H]1CC[C@H](c2ncc(-c3ccc(NC(=O)N4CCc5ccccc5C4)cc3S(=O)(=O)NC(C)(C)C)s2)CC1 [Example 12, isopropyl trans-N-[4-[5-[2-(tert-butylsulfamoyl)-4-(3,4-dihydro-1H-isoquinoline-2-carbonylamino)phenyl]thiazol-2-yl]cyclohexyl]carbamate] | > 25000 nM | 20 nM |  | 
CC(C)OC(=O)NC1CCC(c2ncc(-c3ccc(NC(=O)C4Cc5ccccc5CN4)cc3S(=O)(=O)NC(C)(C)C)s2)CC1 (stereo not drawn) [Example 13, isopropyl trans-N-[4-[5-[2-(tert-butylsulfamoyl)-4-(1,2,3,4-tetrahydroisoquinoline-3-carbonylamino)phenyl]thiazol-2-yl]cyclohexyl]carbamate] | > 25000 nM | 410 nM |  | 
CC(C)OC(=O)NC1CCC(c2ncc(-c3ccc(N/C(=N/C#N)NCc4ccccc4)cc3S(=O)(=O)NC(C)(C)C)s2)CC1 (stereo not drawn) [Example 14, isopropyl trans-N-[4-[5-[4-[[(E)-N-benzyl-N′-cyanocarbamoylamino]amino]-2-(tert-butylsulfamoyl)phenyl]thiazol-2-yl]cyclohexyl]carbamate] | > 25000 nM | 450 nM |  | 
CC(C)OC(=O)N[C@H]1CC[C@H](c2ncc(-c3ccc(NC(=O)COc4ccccc4)cc3S(=O)(=O)NC(C)(C)C)s2)CC1 [Example 15, isopropyl trans-N-[4-[5-[2-(tert-butylsulfamoyl)-4-[(2-phenoxyacetyl)amino]phenyl]thiazol-2-yl]cyclohexyl]carbamate] | > 25000 nM | 280 nM |  | 
CC(C)OC(=O)N[C@H]1CC[C@H](c2ncc(-c3ccc(NC(=O)OCC4CC4)cc3S(=O)(=O)NC(C)(C)C)s2)CC1 [Example 16, isopropyl trans-N-[4-[5-[2-(tert-butylsulfamoyl)-4-(cyclopropylmethoxycarbonylamino)phenyl]thiazol-2-yl]cyclohexyl]carbamate] | > 25000 nM | 490 nM |  | 
CC(C)OC(=O)N[C@H]1CC[C@H](c2ncc(-c3ccc(NC(=O)NC4(c5ccccc5)CC4)cc3S(=O)(=O)NC(C)(C)C)s2)CC1 [Example 17, isopropyl trans-N-[4-[5-[2-(tert-butylsulfamoyl)-4-[(1-phenylcyclopropyl)carbamoylamino]phenyl]thiazol-2-yl]cyclohexyl]carbamate] | > 25000 nM | 110 nM |  | 
CC(C)OC(=O)N[C@H]1CC[C@H](c2ncc(-c3ccc(NC(=O)C4CC4c4ccccc4)cc3S(=O)(=O)NC(C)(C)C)s2)CC1 (stereo partly drawn) [Example 18, isopropyl trans-N-[4-[5-[2-(tert-butylsulfamoyl)-4-[(2-phenylcyclopropanecarbonyl)amino]phenyl]thiazol-2-yl]cyclohexyl]carbamate] | > 25000 nM | 90 nM |  | 
CC(C)OC(=O)Nc1ccc(-c2cnc([C@H]3CC[C@H](NC(=O)OC(C)C)CC3)s2)c(NS(=O)(=O)C(C)(C)C)c1 [Example 19, isopropyl trans-N-[3-(tert-butylsulfonylamino)-4-[2-[4-(isopropoxycarbonylamino)cyclohexyl]thiazol-5-yl]phenyl]carbamate] | > 25000 nM | 960 nM |  | 
CC(C)OC(=O)Nc1ccc(-c2cnc(C3CC4CCC(C3)C4NC(=O)OC(C)C)s2)c(S(=O)(=O)NC(C)(C)C)c1 (stereo not shown) [Example 21, isopropyl N-[3-(tert-butylsulfamoyl)-4-[2-[8-(isopropoxycarbonylamino)-3-bicyclo[3.2.1]octyl]thiazol-5-yl]phenyl]carbamate] | > 25000 nM | 440 nM |  | 
CC(C)OC(=O)N[C@H]1CC[C@H](c2ncc(-c3ccc(Nc4cc[nH]n4)cc3S(=O)(=O)NC(C)(C)C)s2)CC1 [Example 22, isopropyl trans-(4-(5-(4-((1H-pyrazol-3-yl)amino)-2-(N-(tert-butyl)sulfamoyl)phenyl)thiazol-2-yl)cyclohexyl)carbamate] | 23300 nM | 35 nM |  | 
CC(C)OC(=O)Nc1ccc(-c2nnc([C@H]3CC[C@H](NC(=O)OC(C)C)CC3)s2)c(S(=O)(=O)C(C)C)c1 [Example 25, isopropyl trans-N-[4-[5-[4-(isopropoxycarbonylamino)cyclohexyl]-1,3,4-thiadiazol-2-yl]-3-isopropylsulfonyl-phenyl]carbamate] | > 25000 nM | 740 nM |  | 
CC(C)OC(=O)N[C@H]1CC[C@H](c2ncc(-c3ccc(NC(=O)NCc4ccccc4)cc3P(C)(C)=O)s2)CC1 [Example 26, isopropyl trans-(4-(5-(4-(3-benzylureido)-2-(dimethylphosphoryl)phenyl)thiazol-2-yl)cyclohexyl)carbamate] | > 25000 nM | 130 nM |  | 
COc1ccc(Nc2ccc(-c3cnc([C@H]4CC[C@H](NC(=O)OC(C)C)CC4)s3)c(S(=O)(=O)C3COC3)c2)cn1 [Example 113, isopropyl trans-N-[4-[5-[4-[(6-methoxy-3-pyridyl)amino]-2-(oxetan-3-ylsulfonyl)phenyl]thiazol-2-yl]cyclohexyl]carbamate] |  | 16 nM |  | 
Cc1cc(Nc2ccc(-c3cnc([C@H]4CC[C@H](NC(=O)OC(C)C)CC4)s3)c(S(=O)(=O)C3CC3)c2)n(C)n1 [Example 116, isopropyl trans-(4-(5-(2-(cyclopropylsulfonyl)-4-((1,3-dimethyl-1H-pyrazol-5-yl)amino)phenyl)thiazol-2-yl)cyclohexyl)carbamate] |  | 4 nM |  | 
